From ChEMBL document CHEMBL1154800, “TDAE-assisted synthesis of new imidazo[2,1-b]thiazole derivatives as anti-infectious agents” (2010)
≈ marks a conversion by molar mass, not a printed value. Calls of active or inactive are those of the source. No cut-off for these calls is given here.

How the values were obtained:
Pichia kudriavzevii [1] = assay: Antimicrobial activity against Candida krusei ATCC 6258 assessed as minimum microbial concentration after 48 hrs by microplate assay; format: functional
Nakaseomyces glabratus [2] = assay: Antimicrobial activity against Candida glabrata ATCC 90030 assessed as minimum microbial concentration after 48 hrs by microplate assay; format: functional
Candida tropicalis [3] = assay: Antimicrobial activity against Candida tropicalis IP 2031 assessed as minimum microbial concentration after 24 hrs by microplate assay; format: functional
Candida albicans [4] = assay: Antimicrobial activity against Candida albicans ATCC 2091 assessed as minimum microbial concentration after 24 hrs by microplate assay; format: functional
Staphylococcus aureus [5] = assay: Antimicrobial activity against Staphylococcus aureus ATCC 6538 assessed as minimum microbial concentration after 24 hrs by microplate assay; format: functional
Escherichia coli [6] = assay: Antimicrobial activity against Escherichia coli ATCC 10536 after 24 hrs assessed as minimum microbial concentration by microplate assay; format: functional
Escherichia coli [7] = assay: Antimicrobial activity against Escherichia coli ATCC 10536 after 24 hrs by microplate assay; format: functional
Staphylococcus aureus [8] = assay: Antimicrobial activity against Staphylococcus aureus ATCC 6538 after 24 hrs by microplate assay; format: functional
Candida albicans [9] = assay: Antimicrobial activity against Candida albicans ATCC 2091 after 48 hrs by microplate assay; format: functional; conditions: ATCC 2091, 48 h
Candida tropicalis [10] = assay: Antimicrobial activity against Candida tropicalis IP 2031 after 48 hrs by microplate assay; format: functional; conditions: IP 2031, 48 h
Nakaseomyces glabratus [11] = assay: Antimicrobial activity against Candida glabrata ATCC 90030 after 48 hrs by microplate assay; format: functional; conditions: ATCC 90030, 48 h
Pichia kudriavzevii [12] = assay: Antimicrobial activity against Candida krusei ATCC 6258 after 48 hrs by microplate assay; format: functional; conditions: ATCC 6258, 48 h
Escherichia coli [13] = assay: Antimicrobial activity against Escherichia coli ATCC 10536 by disk diffusion method; format: functional
Pseudomonas aeruginosa [14] = assay: Antimicrobial activity against Pseudomonas aeruginosa ATCC 15442 by disk diffusion method; format: functional
Staphylococcus aureus [15] = assay: Antimicrobial activity against Staphylococcus aureus ATCC 6538 by disk diffusion method; format: functional
Enterococcus hirae [16] = assay: Antimicrobial activity against Enterococcus hirae ATCC 10541 by disk diffusion method; format: functional
Candida albicans [17] = assay: Antimicrobial activity against Candida albicans ATCC 2091 by disk diffusion method; format: functional
Candida tropicalis [18] = assay: Antimicrobial activity against Candida tropicalis IP 2031 by disk diffusion method; format: functional
Nakaseomyces glabratus [19] = assay: Antimicrobial activity against Candida glabrata ATCC 90030 by disk diffusion method; format: functional
Pichia kudriavzevii [20] = assay: Antimicrobial activity against Candida krusei ATCC 6258 by disk diffusion method; format: functional
Pseudomonas aeruginosa [21] = assay: Antimicrobial activity against Pseudomonas aeruginosa ATCC 15442 after 24 hrs by microplate assay; format: functional, organism-based
Enterococcus hirae [22] = assay: Antimicrobial activity against Enterococcus hirae ATCC 10541 after 24 hrs by microplate assay; format: functional, organism-based

Row | Compound | Activity (Staphylococcus aureus [5]) | MIC (Staphylococcus aureus [8]; ATCC 6538, 24 h) | MIC (Candida albicans [9]) | MIC (Candida tropicalis [10]) | MIC (Nakaseomyces glabratus [11]) | MIC (Pichia kudriavzevii [12]) | diameter of the inhibition zone (DIZ) (Escherichia coli [13]) | diameter of the inhibition zone (DIZ) (Pseudomonas aeruginosa [14]) | diameter of the inhibition zone (DIZ) (Staphylococcus aureus [15]) | diameter of the inhibition zone (DIZ) (Enterococcus hirae [16]) | diameter of the inhibition zone (DIZ) (Candida albicans [17]) | diameter of the inhibition zone (DIZ) (Candida tropicalis [18]) | diameter of the inhibition zone (DIZ) (Nakaseomyces glabratus [19]) | diameter of the inhibition zone (DIZ) (Pichia kudriavzevii [20]) | other results
1 | O=[N+]([O-])c1c(CCl)nc2sccn12 | 250 µg/mL | 125 µg/mL (≈ 574 µM) | 62.5 µg/mL (≈ 287 µM) | 15.6 µg/mL (≈ 71.7 µM) | 62.5 µg/mL (≈ 287 µM) | 62.5 µg/mL (≈ 287 µM) | 14 mm | 11 mm | 18 mm | 11 mm | 16 mm | 25 mm | 18 mm | 20 mm | Activity (Pichia kudriavzevii [1]): 62.5 µg/mL; Activity (Nakaseomyces glabratus [2]): 62.5 µg/mL; Activity (Candida tropicalis [3]): 15.6 µg/mL; Activity (Candida albicans [4]): 62.5 µg/mL; Activity (Escherichia coli [6]): 250 µg/mL; MIC (Escherichia coli [7]; ATCC 10536, 24 h): 125 µg/mL (≈ 574 µM)
2 | COLISTIN |  |  |  |  |  |  |  |  |  |  |  |  |  |  | MIC (Escherichia coli [7]): 8.12 µg/mL; MIC (Staphylococcus aureus [8]): 0.4 µg/mL
3 | COC(=O)C(O)(Cc1nc2sccn2c1[N+](=O)[O-])C(F)(F)F (stereo not drawn) |  |  |  | 3.9 µg/mL (≈ 11.5 µM) |  |  | inactive | inactive | inactive | inactive | inactive | 33 mm | inactive | inactive | 
4 | GENTAMICIN |  |  |  |  |  |  |  |  |  |  |  |  |  |  | MIC (Pseudomonas aeruginosa [21]): 8.12 µg/mL; MIC (Enterococcus hirae [22]): 25 µg/mL; inhibition zone (IZ) (Escherichia coli [13]): 19 mm; inhibition zone (IZ) (Pseudomonas aeruginosa [14]): 19 mm; inhibition zone (IZ) (Staphylococcus aureus [15]): 20 mm; inhibition zone (IZ) (Enterococcus hirae [16]): 18 mm
5 | O=[N+]([O-])c1c(CBr)nc2sccn12 | 250 µg/mL | 125 µg/mL (≈ 477 µM) | 125 µg/mL (≈ 477 µM) | 15.6 µg/mL (≈ 59.5 µM) | 125 µg/mL (≈ 477 µM) | 62.5 µg/mL (≈ 238 µM) | 9 mm | 11 mm | 18 mm | 11 mm | 17 mm | 29 mm | 20 mm | 23 mm | Activity (Pichia kudriavzevii [1]): 62.5 µg/mL; Activity (Nakaseomyces glabratus [2]): 250 µg/mL; Activity (Candida tropicalis [3]): 15.6 µg/mL; Activity (Candida albicans [4]): 125 µg/mL
6 | Cc1nc2sccn2c1[N+](=O)[O-] |  |  | > 500 µg/mL | 31.2 µg/mL (≈ 170 µM) | > 500 µg/mL | > 500 µg/mL | inactive | inactive | inactive | inactive | inactive | 8 mm | inactive | inactive | 
7 | CCOC(=O)/C=C/c1nc2sccn2c1[N+](=O)[O-] |  |  |  | 15.6 µg/mL (≈ 58.4 µM) |  |  | inactive | inactive | inactive | inactive | inactive | 21 mm | inactive | inactive | 
8 | CC(=O)N1C(=O)C(O)(Cc2nc3sccn3c2[N+](=O)[O-])c2ccccc21 (stereo not drawn) | 62.5 µg/mL | 31.2 µg/mL (≈ 83.8 µM) |  | 14 µg/mL (≈ 37.6 µM) |  |  | inactive | inactive | 16 mm | inactive | inactive | 14 mm | inactive | inactive | 
9 | CN1C(=O)C(O)(Cc2nc3sccn3c2[N+](=O)[O-])c2ccccc21 (stereo not drawn) |  |  |  | 125 µg/mL (≈ 363 µM) |  |  | inactive | inactive | inactive | inactive | inactive | 12 mm | inactive | inactive | 
10 | O=C1Nc2ccccc2C1(O)Cc1nc2sccn2c1[N+](=O)[O-] (stereo not drawn) | 500 µg/mL | 500 µg/mL (≈ 1510 µM) | 500 µg/mL (≈ 1510 µM) | 62.5 µg/mL (≈ 189 µM) | > 500 µg/mL | > 500 µg/mL | inactive | 9 mm | 10 mm | inactive | inactive | 8 mm | inactive | inactive | 
11 | C[C@@H]1[C@H](O)[C@@H](C)/C=C/C=C/C=C/C=C/C=C/C=C/C=C/[C@H](O[C@@H]2O[C@H](C)[C@@H](O)[C@H](N)[C@@H]2O)C[C@@H]2O[C@](O)(C[C@@H](O)C[C@@H](O)[C@H](O)CC[C@@H](O)C[C@@H](O)CC(=O)O[C@H]1C)C[C@H](O)[C@H]2C(=O)O [AMPHOTERICIN B] |  |  | 0.16 µg/mL (≈ 0.173 µM) | 12.5 µg/mL (≈ 13.5 µM) | 0.31 µg/mL (≈ 0.335 µM) | 0.62 µg/mL (≈ 0.671 µM) |  |  |  |  | 22 mm | 8 mm | 22 mm | 18 mm | 
